{"source": "patent US10815206B2", "about": "“RIP1 inhibitory compounds and methods for making and using the same” (priority 2018, dated 2020)", "key": {"[1]": {"test_system": "TNF-alpha induced hypothermia", "assay": "Acute hypothermia mouse model (TNF-alpha/zVAD-FMK induced hypothermia)", "assay_type": "in vivo", "conditions": "mice, oral gavage", "description": "In this example, an acute hypothermia mouse model assay was used to evaluate the ability of compounds disclosed herein to inhibit TNF-alpha induced hypothermia.\nFemale C57BL/6 mice are randomly grouped and weighed on Day −1. On the day of the study (Day 0), mice are administered vehicle or test article by oral gavage. Fifteen minutes after oral administration of test agents, each mouse is administered an intraperitoneal (IP) injection of solution containing recombinant human tumor necrosis factor alpha (TNF-α, 25.0 μg) and zVAD-FMK (200 μg). Body temperature is measured at 0 hours (before IP injections) and every hour via rectal probe temperature measuring device. Three (3) hours after IP injections of TNF-α and zVAD/FMK, mice are euthanized by CO2 asphyxiation and blood is collected via cardiac puncture. Serum and plasma are harvested for determination of cytokine and compound levels, respectively. Separate groups of mice (satellite mice) are included for the determination of compound levels in plasma at the time of administration of TNFa/zVAD-FMK.\n(S)-5-benzyl-N-(5-methyl-4-oxo-2,3,4,5-tetrahydrobenzo[b][1,4]oxazepin-3-yl)-4H-1,2,4-triazole-3-carboxamide (WO 2014/125444), having a structure as illustrated below, was used as a comparative compound and was examined using a similar protocol as described by WO 2014/125444."}, "[2]": {"test_system": "TNF-alpha induced hypothermia", "conditions": "dose of 30 mg/kg, according to WO 2014/125444; cited from earlier work"}}, "note": "Like-named read-outs stand apart in the source and are kept apart here."}
{"compound": "CN1C(=O)[C@@H](NC(=O)c2n[nH]c(Cc3ccccc3)n2)COc2ccc(C#CC(C)(C)O)cc21", "note": "[Compound I-30, (S)-5-benzyl-N-(7-(3-hydroxy-3-methylbut-1-yn-1l-yl)-5-methyl-4-oxo-2,3,4,5-tetrahydrobenzo[b][1,4]oxazepin-3-yl)-1H-1,2,4-triazole-3-carboxamide]", "values": [{"measurement": "inhibition of TNF-alpha induced hypothermia", "setting": "[1]; dose of 5 mg/kg", "value": "greater than 85%"}]}
{"compound": "CN1C(=O)[C@@H](NC(=O)c2nnc(Cc3ccccc3)[nH]2)COc2ccccc21", "note": "[comparative compound, (S)-5-benzyl-N-(5-methyl-4-oxo-2,3,4,5-tetrahydrobenzo[b][1,4]oxazepin-3-yl)-4H-1,2,4-triazole-3-carboxamide]", "values": [{"measurement": "inhibition of TNF-alpha induced hypothermia", "setting": "[2]", "value": 93, "unit": "%"}, {"measurement": "inhibition of TNF-alpha induced hypothermia", "setting": "[1]; 30 mg/kg, in the inventors hands", "value": 70, "unit": "%"}]}
